± gives the standard deviation of the averaged measurements.
Columns and labels:
Assay in all cases: level (log10 ratio to DMSO vehicle control); higher = higher biomarker level / cell amount than vehicle control
[1] = compound: OCCC(F)(F)C(F)(F)C(F)(F)C(F)(F)C(F)(F)C(F)(F)C(F)(F)C(F)(F)F [8:2 Fluorotelomer alcohol]; conditions: 6700 nM; in DMSO
Procedure: (§1)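 BioMAP Diversity Plus panel of 12 human primary cell co-culture systems (3C, 4H, LPS, SAg, BT, BF4T, BE3C, CASM3C, HDF3CGF, KF3CT, MyoF, Mphg). Compounds were added 1 h before stimulation and left for 24 h (MyoF 48 h; BT 72 h for soluble read-outs or 6 d for IgG). Biomarkers were read by ELISA, cytotoxicity by SRB, PBMC viability and proliferation by Alamar Blue. Each well value was divided by the mean of 8 DMSO control wells on the same plate and log10 transformed; duplicate blinded samples were tested at 4 concentrations.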

[2] = compound: OCCCCC(F)(F)C(F)(F)C(F)(F)C(F)(F)F [4:4 Fluorotelomer alcohol]; conditions: in DMSO
Procedure: as §1

[3] = compound: CN(Cc1cnc2nc(N)nc(N)c2n1)c1ccc(C(=O)N[C@@H](CCC(=O)O)C(=O)O)cc1 [Methotrexate]; conditions: in DMSO
Procedure: as §1

[4] = compound: O=C(CC(=O)C(F)(F)C(F)(F)C(F)(F)F)c1cccs1 [(Perfluorobutyryl)-2-thenoylmethane]; conditions: in DMSO
Procedure: as §1

[5] = compound: O=C(O)C(F)(F)C(F)(F)C(F)(F)C(F)(F)C(F)(F)C(F)(F)C(F)(F)F [Perfluorooctanoic acid]; conditions: in DMSO
Procedure: as §1

[6] = compound: O=C(O)C(F)(F)C(F)(F)C(=O)O [Tetrafluorosuccinic acid]; conditions: in DMSO
Procedure: as §1

[7] = compound: C=CC(=O)OCC(F)(F)C(F)(F)C(F)(F)C(F)(F)COC(=O)C=C [1H,1H,6H,6H-Perfluorohexane-1,6-diol diacrylate]; conditions: 6700 nM; in DMSO
Procedure: as §1

[8] = compound: O=S(=O)(O)CCC(F)(F)C(F)(F)C(F)(F)C(F)(F)F [4:2 Fluorotelomer sulfonic acid]; conditions: in DMSO
Procedure: as §1

Row | Test System | level (log10) [1] | level (log10) ([2]; 6700 nM) | level (log10) ([2]; 20000 nM) | level (log10) ([2]; 60000 nM) | level (log10) ([3]; 1500 nM) | level (log10) ([3]; 4400 nM) | level (log10) ([3]; 13000 nM) | level (log10) ([3]; 40000 nM) | level (log10) ([4]; 6700 nM) | level (log10) ([4]; 20000 nM) | level (log10) ([5]; 6700 nM) | level (log10) ([5]; 20000 nM) | level (log10) ([5]; 60000 nM) | level (log10) ([6]; 6700 nM) | level (log10) ([6]; 20000 nM) | level (log10) ([6]; 60000 nM) | level (log10) [7] | level (log10) ([8]; 6700 nM) | level (log10) ([8]; 20000 nM) | level (log10) ([8]; 60000 nM)
1 | CASM3C:M-CSF | -0.0135 ± 0.012 | 0.0085 ± 0.011 | -0.005 ± 0.024 | 0.021 ± 0.047 | 0.0285 ± 0.013 | -0.051 ± 0.027 | -0.0455 ± 0.0021 | -0.0275 ± 0.081 | 0.014 | 0.012 ± 0.04 | 0.0005 ± 0.012 | -0.004 ± 0.021 | 0.0145 ± 0.022 | -0.008 ± 0.035 | -0.015 ± 0.016 | 0.0095 ± 0.033 | -0.105 ± 0.016 | -0.0265 ± 0.011 | -0.02 ± 0.0028 | 0.001 ± 0.03
2 | MyoF:Collagen I | -0.0025 ± 0.021 | 0.004 ± 0.0014 | -0.002 ± 0.016 | 0.0065 ± 0.026 | -0.0115 ± 0.049 | -0.01 ± 0.059 | 0.01 ± 0.035 | 0.004 ± 0.038 | -0.0255 ± 0.037 | -0.128 ± 0.033 | -0.0065 ± 0.0092 | -0.0035 ± 0.036 | -0.034 ± 0.017 | 0.0045 ± 0.0021 | 0.007 ± 0.0014 | 0.0005 ± 0.012 | -0.01 ± 0.052 | 0.004 ± 0.013 | -0.0155 ± 0.015 | 0.018
3 | HDF3CGF:CCL2/MCP-1 | -0.0175 ± 0.032 | 0.004 ± 0.0014 | 0.008 ± 0.0099 | 0.007 ± 0.016 | -0.0395 ± 0.059 | -0.0325 ± 0.093 | -0.0425 ± 0.071 | -0.0435 ± 0.11 | -0.005 ± 0.011 | -0.172 ± 0.014 | -0.0345 ± 0.044 | -0.0305 ± 0.04 | -0.0085 ± 0.057 | -0.035 ± 0.0099 | -0.0415 ± 0.0064 | -0.0275 ± 0.012 | -0.437 ± 0.0028 | -0.008 ± 0.0071 | -0.009 ± 0.017 | 0.0105 ± 0.028
4 | CASM3C:CD87/uPAR | -0.018 ± 0.054 | -0.009 ± 0.028 | -0.0135 ± 0.029 | -0.0045 ± 0.025 | 0.0385 ± 0.037 | 0.033 ± 0.023 | 0.0585 ± 0.015 | 0.04 ± 0.048 | -0.046 ± 0.018 | -0.0065 ± 0.005 | -0.049 ± 0.047 | -0.021 ± 0.082 | -0.0035 ± 0.067 | -0.01 ± 0.021 | -0.024 ± 0.013 | -0.0185 ± 0.0021 | -0.0235 ± 0.013 | 0 ± 0.027 | 0.0025 ± 0.0078 | -0.0165 ± 0.037
5 | MyoF:alpha-SM Actin | -0.021 ± 0.024 | 0.025 ± 0.041 | 0.0195 ± 0.04 | 0.041 ± 0.055 | -0.001 ± 0.0028 | -0.0225 ± 0.0092 | -0.008 ± 0.0071 | -0.017 ± 0.033 | -0.0445 ± 0.042 | -0.0865 ± 0.059 | 0.014 ± 0.02 | 0.0155 ± 0.047 | -0.0035 ± 0.032 | 0.0065 ± 0.025 | -0.0165 ± 0.015 | -0.0275 ± 0.037 | -0.157 ± 0.012 | 0 ± 0.052 | 0.022 ± 0.0028 | 0.035 ± 0.0028
6 | HDF3CGF:MMP-1 | 0.034 ± 0.0014 | -0.008 ± 0.0028 | 0.006 ± 0.0014 | 0.004 ± 0.0042 | -0.0085 ± 0.005 | -0.0135 ± 0.0021 | 0.0005 ± 0.0021 | 0.0065 ± 0.028 | -0.0195 ± 0.0092 | -0.0935 ± 0.0078 | -0.0155 ± 0.0064 | -0.048 ± 0.0085 | -0.035 ± 0.023 | 0.0295 ± 0.015 | 0.0315 ± 0.021 | 0.0195 ± 0.022 | 0.0075 ± 0.0021 | -0.009 ± 0.0028 | -0.0285 ± 0.028 | -0.0365 ± 0.026
7 | MyoF:bFGF | 0.002 ± 0.018 | 0.0035 ± 0.0035 | -0.009 ± 0.021 | 0.005 ± 0.042 | -0.0095 ± 0.015 | -0.0045 ± 0.021 | 0.009 ± 0.0071 | -0.0095 ± 0.0035 | 0.002 ± 0.0028 | -0.0175 ± 0.00071 | -0.023 ± 0.0057 | -0.0275 ± 0.0035 | -0.0085 ± 0.03 | 0.0005 ± 0.0021 | 0.0095 ± 0.0078 | -0.0045 ± 0.029 | 0.0155 ± 0.0064 | -0.001 ± 0.0071 | 0.0025 ± 0.028 | 0.0055 ± 0.022
8 | CASM3C:CCL2/MCP-1 | -0.0125 ± 0.0021 | -0.004 ± 0.011 | -0.025 ± 0.0099 | 0.0285 ± 0.059 | 0 ± 0.0028 | -0.0125 ± 0.005 | -0.002 ± 0.016 | -0.0195 ± 0.025 | 0.039 ± 0.011 | -0.017 ± 0.011 | 0.007 ± 0.0085 | -0.01 ± 0.03 | 0.0215 ± 0.022 | -0.0005 ± 0.00071 | -0.0165 ± 0.005 | -0.0005 ± 0.025 | -0.0195 ± 0.0064 | -0.002 ± 0.0057 | 0.0015 ± 0.011 | 0.0125 ± 0.036
9 | BE3C:SRB | -0.0075 ± 0.0021 | -0.0065 ± 0.0035 | -0.0035 ± 0.005 | 0.0015 ± 0.016 | -0.0035 ± 0.0064 | -0.009 ± 0.0014 | -0.0025 ± 0.00071 | 0.001 ± 0.014 | -0.02 ± 0.0071 | -0.031 ± 0.0071 | -0.0065 ± 0.00071 | -0.0025 ± 0.0021 | -0.014 ± 0.0099 | -0.0045 ± 0.005 | -0.0045 ± 0.0064 | -0.001 ± 0.0028 | -0.006 ± 0.0028 | 0.0015 ± 0.00071 | -0.007 ± 0.0085 | 0.0005 ± 0.0078
10 | KF3CT:TIMP-2 | -0.0175 ± 0.026 | 0.0135 ± 0.0064 | 0.0075 ± 0.019 | -0.0015 ± 0.015 | -0.029 ± 0.035 | -0.034 ± 0.069 | -0.0325 ± 0.06 | -0.0195 ± 0.088 | -0.0365 ± 0.00071 | -0.05 ± 0.016 | -0.0195 ± 0.015 | 0.0025 ± 0.016 | 0.035 ± 0.038 | 0 ± 0.0071 | 0.0365 ± 0.005 | 0.027 ± 0.024 | -0.088 ± 0.0057 | -0.0215 ± 0.023 | -0.0185 ± 0.042 | -0.0025 ± 0.0064
